In data set [1] the target is Glutamate NMDA receptor; GRIN1/GRIN2B (Homo sapiens, UniProt Q05586+Q13224). As to the kind of experiment: Negative allosteric modulation of human GluN1A/GluN2B receptor expressed in T-REX-CHO cells preincubated for 5 mins followed by glutamate and glycine addition and measured after 5 mins by FLIPR assay. Format: cell-based.
Data set [2] deals with Glutamate receptor ionotropic, NMDA 2B (Rattus norvegicus, UniProt Q00960). As to the kind of experiment: Displacement of 3-(3H) 1-(azetidin-1-yl)-2-(6- (4-fluoro-3-methyl-phenyl)pyrrolo-[…] pyridin-1yl)ethanone from GluN2B receptor in rat cortical membrane assessed as inhibition constant incubated for 2 hrs under shaking condition by liquid scintillator counter analysis. Type of data set: cell membranes, Cortex.

The target of data set [3] is Voltage-gated inwardly rectifying potassium channel KCNH2 (Homo sapiens, UniProt Q12809). As to the kind of experiment: Displacement of [3H]dofetilide from human ERG expressed in HEK293 cells. Type of data set: toxicity, cell-based.
Another data set concerns MDR1 (P-gp). As to the kind of experiment: Efflux ratio of apparent permeability from basolateral to apical side over apical to basolateral side in MDCK-MDR1 cells at 5 uM incubated for 60 mins by LC-MS/MS analysis. Format: ADME, cell-based, Canis lupus familiaris. The note with it: dog.
Data set [4] can be described thus: Metabolic stability in human liver microsomes assessed as extraction ratio. Format: ADME, Microsome. The note with it: read-out: ERH.
Data set [5] in a line: Metabolic stability in rat liver microsomes assessed as extraction ratio. Format: ADME, Microsome. The note with it: read-out: ERH.
Data set [6] can be described thus: Drug metabolism in human liver microsomes assessed as O-dearylation mediated metabolite formation. Format: ADME, Microsome.
Data set [7] can be described thus: Drug metabolism in rat liver microsomes assessed as O-dearylation mediated metabolite formation. Type of data set: ADME, Microsome.
A short description of data set [8]: Drug metabolism in human liver microsomes assessed as hydroxylated metabolite (2-((1-(3-(difluoromethoxy)-4-fluorophenyl)-1H-1,2,3-triazol-4-yl)methoxy)pyrimidin-5-yl)methanol formation. Type of data set: ADME, Microsome.
Data set [9] can be described thus: Drug metabolism in rat liver microsomes assessed as hydroxylated metabolite (2-((1-(3-(difluoromethoxy)-4-fluorophenyl)-1H-1,2,3-triazol-4-yl)methoxy)pyrimidin-5-yl)methanol formation. Type of data set: ADME, Microsome.
A short description of data set [10]: Drug metabolism in human liver microsomes assessed as acid metabolite 2-((1-(3-(difluoromethoxy)-4-fluorophenyl)-1H-1,2,3-triazol-4-yl)methoxy)pyrimidine-5-carboxylic acid formation. Format: ADME, Microsome.
The nature of data set [11]: Drug metabolism in rat liver microsomes assessed as acid metabolite 2-((1-(3-(difluoromethoxy)-4-fluorophenyl)-1H-1,2,3-triazol-4-yl)methoxy)pyrimidine-5-carboxylic acid formation. Format: ADME, Microsome.
A further data set relates to Hippocampus. As to the kind of experiment: Ex vivo receptor occupancy at GluN2B receptor in Sprague-Dawley rat hippocampus administered orally and measured after 2 hrs by 3-[3H] 1-(azetidin- 1-yl-2[6-(4-fluoro-3-methyl-pheny)pyrrolo[3,2-b]pyridin-1-yl]ethanon based autoradiography. Type of data set: functional. The note with it: route po.
Data set [12] can be described thus: Solubility in aqueous buffer at pH 2. Format: physicochemical.
Data set [13] is described as follows: Solubility in aqueous buffer at pH 7. Type of data set: physicochemical.

SMILES strings stand for the structures. pIC50, pKi: −log10 of the molar value. Values after ≈ are worked out from the molar mass of the structure shown.

Glutamate receptor ionotropic, NMDA 2B, sequence (Q00960 whole entry): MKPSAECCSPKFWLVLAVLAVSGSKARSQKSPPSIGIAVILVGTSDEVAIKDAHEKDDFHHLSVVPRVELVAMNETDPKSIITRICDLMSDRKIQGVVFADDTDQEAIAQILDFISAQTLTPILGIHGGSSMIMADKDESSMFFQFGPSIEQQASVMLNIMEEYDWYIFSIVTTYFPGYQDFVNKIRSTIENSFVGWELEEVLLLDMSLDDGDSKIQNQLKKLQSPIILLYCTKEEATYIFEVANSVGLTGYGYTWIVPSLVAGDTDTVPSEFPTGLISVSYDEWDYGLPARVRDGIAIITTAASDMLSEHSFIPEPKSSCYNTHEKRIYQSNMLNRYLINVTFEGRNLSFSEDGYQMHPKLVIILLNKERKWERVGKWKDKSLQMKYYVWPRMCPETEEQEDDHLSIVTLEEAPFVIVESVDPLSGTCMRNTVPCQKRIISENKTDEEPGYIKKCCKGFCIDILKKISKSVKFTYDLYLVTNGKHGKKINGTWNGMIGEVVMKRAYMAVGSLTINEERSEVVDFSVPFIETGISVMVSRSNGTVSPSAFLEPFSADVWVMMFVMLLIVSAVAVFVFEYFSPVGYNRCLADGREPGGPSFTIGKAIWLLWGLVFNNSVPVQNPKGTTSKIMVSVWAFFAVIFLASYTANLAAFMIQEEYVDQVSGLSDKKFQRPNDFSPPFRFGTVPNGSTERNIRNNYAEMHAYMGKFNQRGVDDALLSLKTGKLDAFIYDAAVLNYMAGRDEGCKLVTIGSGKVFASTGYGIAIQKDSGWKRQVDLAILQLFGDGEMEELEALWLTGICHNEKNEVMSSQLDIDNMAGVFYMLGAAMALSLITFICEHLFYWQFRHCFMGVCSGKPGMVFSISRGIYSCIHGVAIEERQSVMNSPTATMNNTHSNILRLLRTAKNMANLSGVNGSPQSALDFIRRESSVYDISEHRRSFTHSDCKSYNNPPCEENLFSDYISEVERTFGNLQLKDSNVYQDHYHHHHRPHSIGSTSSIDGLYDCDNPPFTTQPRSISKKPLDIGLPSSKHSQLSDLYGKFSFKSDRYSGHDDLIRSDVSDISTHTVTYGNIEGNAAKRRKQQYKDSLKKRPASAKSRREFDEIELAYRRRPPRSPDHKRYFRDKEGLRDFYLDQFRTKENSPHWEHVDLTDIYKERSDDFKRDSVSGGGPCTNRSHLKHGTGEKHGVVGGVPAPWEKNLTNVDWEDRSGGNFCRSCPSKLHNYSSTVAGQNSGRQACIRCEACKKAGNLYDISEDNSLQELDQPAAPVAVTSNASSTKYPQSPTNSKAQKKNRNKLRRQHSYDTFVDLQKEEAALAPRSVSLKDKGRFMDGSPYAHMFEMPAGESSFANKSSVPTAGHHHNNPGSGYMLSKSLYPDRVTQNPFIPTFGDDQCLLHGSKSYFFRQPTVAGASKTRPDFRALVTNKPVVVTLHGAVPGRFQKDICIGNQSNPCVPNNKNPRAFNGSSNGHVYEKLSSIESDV
Voltage-gated inwardly rectifying potassium channel KCNH2, sequence (Q12809 whole entry): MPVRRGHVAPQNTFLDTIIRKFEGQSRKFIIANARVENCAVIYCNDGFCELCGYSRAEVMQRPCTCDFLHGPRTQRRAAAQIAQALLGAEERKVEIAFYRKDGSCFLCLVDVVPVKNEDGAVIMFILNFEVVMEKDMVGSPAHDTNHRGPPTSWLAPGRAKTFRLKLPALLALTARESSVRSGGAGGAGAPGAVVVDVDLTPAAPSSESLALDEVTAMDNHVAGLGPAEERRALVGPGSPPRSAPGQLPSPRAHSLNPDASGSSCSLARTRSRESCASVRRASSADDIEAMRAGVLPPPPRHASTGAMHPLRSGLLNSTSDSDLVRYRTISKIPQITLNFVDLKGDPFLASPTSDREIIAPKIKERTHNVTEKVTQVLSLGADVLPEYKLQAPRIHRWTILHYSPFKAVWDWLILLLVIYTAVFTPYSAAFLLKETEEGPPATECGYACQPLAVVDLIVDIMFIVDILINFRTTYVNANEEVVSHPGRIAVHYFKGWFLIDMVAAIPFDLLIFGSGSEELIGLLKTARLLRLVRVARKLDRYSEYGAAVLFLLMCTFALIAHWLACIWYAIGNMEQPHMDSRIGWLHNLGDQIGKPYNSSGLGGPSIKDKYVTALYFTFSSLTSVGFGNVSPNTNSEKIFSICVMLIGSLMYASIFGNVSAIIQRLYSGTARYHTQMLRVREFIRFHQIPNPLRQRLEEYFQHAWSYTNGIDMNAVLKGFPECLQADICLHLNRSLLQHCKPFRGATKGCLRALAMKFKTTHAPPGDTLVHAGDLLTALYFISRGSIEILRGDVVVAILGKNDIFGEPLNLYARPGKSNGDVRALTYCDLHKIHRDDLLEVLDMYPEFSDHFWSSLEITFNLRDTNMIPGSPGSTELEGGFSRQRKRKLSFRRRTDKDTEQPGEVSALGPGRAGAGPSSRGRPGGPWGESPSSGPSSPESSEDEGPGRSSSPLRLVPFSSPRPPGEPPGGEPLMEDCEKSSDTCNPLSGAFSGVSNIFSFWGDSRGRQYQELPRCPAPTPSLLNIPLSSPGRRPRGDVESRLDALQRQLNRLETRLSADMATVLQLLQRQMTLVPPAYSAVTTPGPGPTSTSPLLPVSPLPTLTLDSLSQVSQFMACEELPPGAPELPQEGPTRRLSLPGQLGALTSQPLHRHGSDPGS
Glutamate NMDA receptor; GRIN1/GRIN2B, sequence (Q13224 whole entry, other chains not shown): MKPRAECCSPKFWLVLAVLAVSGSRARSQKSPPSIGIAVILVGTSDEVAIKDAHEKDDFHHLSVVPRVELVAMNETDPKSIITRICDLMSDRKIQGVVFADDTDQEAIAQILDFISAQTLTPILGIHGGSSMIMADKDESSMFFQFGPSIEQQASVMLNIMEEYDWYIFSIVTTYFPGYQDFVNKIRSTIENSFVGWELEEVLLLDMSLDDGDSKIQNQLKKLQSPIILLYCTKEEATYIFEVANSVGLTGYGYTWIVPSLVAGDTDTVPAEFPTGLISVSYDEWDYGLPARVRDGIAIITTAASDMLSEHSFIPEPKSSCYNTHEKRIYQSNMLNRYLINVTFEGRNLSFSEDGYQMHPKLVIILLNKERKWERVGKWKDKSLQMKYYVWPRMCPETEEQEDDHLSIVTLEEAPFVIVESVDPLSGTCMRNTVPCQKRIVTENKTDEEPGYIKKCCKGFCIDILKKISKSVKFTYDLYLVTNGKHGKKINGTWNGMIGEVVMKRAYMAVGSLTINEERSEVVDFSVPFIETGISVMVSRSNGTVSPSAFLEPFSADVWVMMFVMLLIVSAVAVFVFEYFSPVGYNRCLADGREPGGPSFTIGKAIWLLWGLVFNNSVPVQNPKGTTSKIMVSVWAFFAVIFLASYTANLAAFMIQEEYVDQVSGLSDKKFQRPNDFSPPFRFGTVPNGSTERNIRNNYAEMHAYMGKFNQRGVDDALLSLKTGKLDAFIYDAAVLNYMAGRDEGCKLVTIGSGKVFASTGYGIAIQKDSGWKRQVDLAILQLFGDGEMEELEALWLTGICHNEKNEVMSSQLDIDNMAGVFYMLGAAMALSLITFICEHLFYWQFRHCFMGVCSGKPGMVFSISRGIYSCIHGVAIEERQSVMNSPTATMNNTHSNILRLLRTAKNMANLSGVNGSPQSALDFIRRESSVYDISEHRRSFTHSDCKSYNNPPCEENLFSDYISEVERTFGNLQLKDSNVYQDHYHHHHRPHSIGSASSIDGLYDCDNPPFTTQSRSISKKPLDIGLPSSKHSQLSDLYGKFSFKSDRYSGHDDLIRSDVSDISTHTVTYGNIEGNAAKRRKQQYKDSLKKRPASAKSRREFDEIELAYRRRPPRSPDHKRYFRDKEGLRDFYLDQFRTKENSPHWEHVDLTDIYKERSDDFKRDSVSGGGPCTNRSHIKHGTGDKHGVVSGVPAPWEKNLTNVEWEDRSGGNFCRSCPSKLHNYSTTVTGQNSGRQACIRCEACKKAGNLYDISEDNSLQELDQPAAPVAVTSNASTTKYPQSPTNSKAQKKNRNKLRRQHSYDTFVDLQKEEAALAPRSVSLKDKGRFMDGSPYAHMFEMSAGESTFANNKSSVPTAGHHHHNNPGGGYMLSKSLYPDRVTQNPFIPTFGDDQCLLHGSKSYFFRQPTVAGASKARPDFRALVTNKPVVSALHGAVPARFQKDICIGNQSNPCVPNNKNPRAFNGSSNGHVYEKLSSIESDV

Consider `Cc1cnc(OCc2cn(-c3ccc(F)c(OC(F)F)c3)nn2)nc1`, for which the pIC50 was 8.46 in data set [1] and less than 5.00 in data set [3]. Also, the pKi in data set [2] is 8.05. In addition, the efflux ratio at 1 h, 5 µM in the data set on MDR1 (P-gp) was determined as 0.8. Also, the hepatic extraction ratio stood at 0.57 in data set [4] and 0.37 in data set [5]. Also, the Drug metabolism entry is reported as “Metabolite_Notdetected” in data set [6]; “Metabolite_Notdetected” in data set [7]; “Metabolite_Detected” in [8]; “Metabolite_Detected” in [9]; “Metabolite_Detected” in data set [10]; “Metabolite_Detected” in [11]. Besides, the median effective dose (ED50) with Hippocampus amounted to 1.7 mg/kg. Besides, the solubility in [12] and in data set [13] was 7.6 µM (≈ 2.67 µg/mL) throughout.

(Values after ChEMBL document CHEMBL5316339, “Discovery of a Series of Substituted 1H-((1,2,3-Triazol-4-yl)methoxy)pyrimidines as Brain Penetrants and Potent GluN2B-Selective Negative Allosteric Modulators” (J Med Chem, 2023).)
